Results reported in patent US20240148821A1, “PHARMACEUTICAL USE OF CYCLIC PEPTIDE COMPOUND” (CHUGAI SEIYAKU KABUSHIKI KAISHA, priority 2021, published 2024).
Numbered stars: 1 amine (or outer) side, 2 acyl side, 3 side chain; on linkers, the order of the positions; unused ones are H or OH. Bridge positions count the residues as written; N and C are the ends. Square brackets hold non-standard residues; d marks the D form. Peptide text beside a SMILES is read from it. * marks the point of attachment. hPhe(3,5-F2-4-CF3) = N[C@@H](CCc1cc(F)c(C(F)(F)F)c(F)c1)C(=O)O; hPhe(3-Cl-4-CF3) = N[C@@H](CCc1ccc(C(F)(F)F)c(Cl)c1)C(=O)O; hPhe(3-F,4-CF3) = N[C@@H](CCc1ccc(C(F)(F)F)c(F)c1)C(=O)O; NMePhe(4-CF3) = CN[C@@H](Cc1ccc(C(F)(F)F)cc1)C(=O)O; Pro(trans-4-Ph) = O=C(O)[C@@H]1C[C@@H](c2ccccc2)CN1; 3Oxa8azabicyclo(3.2.1)octane = C1CC2COCC1N2*; NMeAbu(4,4,4-F3) = CN[C@@H](CC(F)(F)F)C(=O)O; NMePhe(4-Cl) = CN[C@@H](Cc1ccc(Cl)cc1)C(=O)O; NMePhe(4-Me) = CN[C@@H](Cc1ccc(C)cc1)C(=O)O; NMedβ3hAla = C[C@H](CC(=O)[*:2])N(C)[*:1]; NMeAla(cPent) = CN[C@@H](CC1CCCC1)C(=O)O; NMeGly(cPent) = CN[C@H](C(=O)O)C1CCCC1; NMe3Pal = CN[C@@H](Cc1cccnc1)C(=O)O; NMeCha = CN[C@@H](CC1CCCCC1)C(=O)O; Hyp = O=C(O)[C@@H]1C[C@@H](O)CN1; NEtLeu = CCN[C@@H](CC(C)C)C(=O)O; NMeChg = CN[C@H](C(=O)O)C1CCCCC1; NMeI = CC[C@H](C)[C@H](NC)C(=O)O; NMeD = CN[C@@H](CC(=O)O)C(=O)O; NMeL = CN[C@@H](CC(C)C)C(=O)O; Chg = N[C@H](C(=O)O)C1CCCCC1; NMeV = CN[C@H](C(=O)O)C(C)C; d(β3hA) = C[C@@H](N)CC(=O)O; NMeS = CN[C@@H](CO)C(=O)O; Morpholide = C1CN(*)CCO1; NMeA = CN[C@@H](C)C(=O)O; NMeAib = CNC(C)(C)C(=O)O; Piperidide = C1CCN(*)CC1; Pra = C#CC[C@H](N)C(=O)O; Pyrrolidide = C1CCN(*)C1; Ac5c = NC1(C(=O)O)CCCC1; Aze = O=C(O)[C@@H]1CCN1; Aib = CC(C)(N)C(=O)O; Bn = c1ccc(C*)cc1; NEtG = CCNCC(=O)O; Sar = CNCC(=O)O; Propyl = CCC*

What was measured:
[1] = system: Human pancreatic cancer cell line AsPC-1 (G12D mutation Kras); assay: AsPC-1 cell growth inhibition (AsPC-1 CGI); type: cell-based; settings: read-out: AsPC-1 cell growth inhibition, 50% growth inhibitory concentration (IC50 value); 96 hours, CellTiter-Glo, values classified in ranges
[2] = target: protein-protein interaction between Kras and SOS1 (biotin-tagged human Kras loaded with GDP, His-tagged human SOS1) (Homo sapiens (Human), UniProt P01116, G12D); assay: Protein-protein interaction inhibition between Kras and SOS1 (KrasG12D-SOS PPI) using AlphaScreen; type: biochemical; settings: AlphaScreen; biotin-tagged human Kras loaded with GDP, His-tagged human SOS1; read-out: KRAS G12D-SOS PPI IC50;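 also: kras produced in E. coli, Ni-coupled donor beads and streptavidin acceptor beads, excitation 680 nm with emission detected at 520–620 nm via singlet oxygen transfer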

Compound | IC50 [1] [nM] | IC50 [2] [nM]
CC[C@H](C)[C@@H]1NC(=O)[C@H](CC(C)C)N(C)C(=O)C[C@@H](C)N(C)C(=O)[C@H](C2CCCCC2)NC(=O)C(C)(C)N(C)C(=O)[C@H](CC(C)C)NC(=O)[C@H](CCc2ccc(C(F)(F)F)c(F)c2)NC(=O)CN(C)C(=O)[C@H](Cc2ccc(Cl)cc2)N(C)C(=O)CN(C)C(=O)CN(C)C1=O [Compound 897] (cyclo([Chg][NMedβ3hAla][NMeL]I[Sar][Sar][NMePhe(4-Cl)][Sar][hPhe(3-F,4-CF3)]L[NMeAib])) | > 500 | 150
CC[C@H](C)[C@@H]1NC(=O)[C@H](CC(C)C)N(C)C(=O)C[C@@H](C)NC(=O)[C@H](CC(C)C)N(C)C(=O)C2(CCCC2)NC(=O)[C@@H]2C[C@@H](OCc3ccccc3)CN2C(=O)[C@H](CCc2ccc(C(F)(F)F)c(F)c2)NC(=O)CN(C)C(=O)[C@H](CC2CCCCC2)N(C)C(=O)CN(C)C(=O)CN(C)C1=O [Compound 2116, (3S,9S,18S,21S,25R,28S,34S,36R)-36-benzyloxy-9-(cylohexylmethyl)-3-[2-[3-fluoro-4-(trifluoromethyl)phenyl]ethyl]-21,28-diisobutyl-7,10,13,16,22,25,29-heptamethyl-18-[(1S)-1-methylpropyl]spiro[1,4,7,10,13,16,19,22,26,29,32-undecazabicyclo[32.3.0]heptatriacontane-31,1′-cyclopentane]-2,5,8,11,14,17,20,23,27,30,33-undecone] (cyclo([Ac5c][NMeL][d(β3hA)][NMeL]I[Sar][Sar][NMeCha][Sar][hPhe(3-F,4-CF3)][Hyp](Bn))) | > 500 | 110
CCCOC[C@H]1C(=O)N(C)CC(=O)N[C@@H](CCc2ccc(C(F)(F)F)c(Cl)c2)C(=O)N2CCC[C@H]2C(=O)NC2(CCCC2)C(=O)N(C)[C@@H](C2CCCC2)C(=O)N(C)[C@H](C(=O)N2C3CCC2COC3)CC(=O)N(C)[C@@H](CC(C)C)C(=O)N[C@@H]([C@@H](C)CC)C(=O)N(C)[C@@H](C)C(=O)N2CC[C@H]2C(=O)N1C [Compound 176] ([NMeL]I[NMeA][Aze][NMeS](Propyl)[Sar][hPhe(3-Cl-4-CF3)]P[Ac5c][NMeGly(cPent)][NMeD]-{3Oxa8azabicyclo(3.2.1)octane}; lactam N-11) | ≤ 20 | 1.4
CCO[C@@H]1C[C@H]2C(=O)NC3(CCCC3)C(=O)N(C)[C@@H](C3CCCCC3)C(=O)N(C)[C@H](C(=O)N3CCCC3)CC(=O)N(C)[C@@H](CC(F)(F)F)C(=O)N[C@@H]([C@@H](C)CC)C(=O)N(C)CC(=O)N(C)CC(=O)N(C)[C@@H](Cc3ccc(C)cc3)C(=O)N(C)CC(=O)N[C@@H](CCc3cc(F)c(C(F)(F)F)c(F)c3)C(=O)N2C1 [Compound 1301] ([NMeAbu(4,4,4-F3)]I[Sar][Sar][NMePhe(4-Me)][Sar][hPhe(3,5-F2-4-CF3)][Hyp](Et)[Ac5c][NMeChg][NMeD]-Pyrrolidide; lactam N-11) | ≤ 20 | 0.67
CC[C@H](C)[C@@H]1NC(=O)[C@H](CC(C)C)N(CC)C(=O)C[C@@H](C(=O)N(C)C)N(C)C(=O)[C@H]([C@@H](C)CC)N(C)C(=O)C2(CCCC2)NC(=O)[C@@H]2CCCN2C(=O)[C@H](CCc2ccc(C(F)(F)F)c(Cl)c2)NC(=O)CN(C)C(=O)[C@H](Cc2ccc(C)cc2)N(C)C(=O)[C@@H]2CCN2C(=O)[C@H](C)N(C)C1=O [Compound 1365] ([NEtLeu]I[NMeA][Aze][NMePhe(4-Me)][Sar][hPhe(3-Cl-4-CF3)]P[Ac5c][NMeI][NMeD]-NMe2; lactam N-11) | ≤ 20 | 1.2
CC[C@H](C)[C@@H]1NC(=O)[C@H](CC(C)C)N(C)C(=O)C[C@@H](C)N(C)C(=O)[C@H](CC(C)C)NC(=O)C(C)(C)N(C)C(=O)[C@H](C(C)C)NC(=O)[C@H](CCc2ccc(C(F)(F)F)c(F)c2)NC(=O)CN(C)C(=O)[C@H](Cc2ccc(Cl)cc2)N(C)C(=O)CN(C)C(=O)CN(C)C1=O [Compound 1054] (cyclo(I[Sar][Sar][NMePhe(4-Cl)][Sar][hPhe(3-F,4-CF3)]V[NMeAib]L[NMedβ3hAla][NMeL])) | > 500 | 120
CCCOC[C@H]1C(=O)N(C)CC(=O)N[C@@H](CCc2ccc(C(F)(F)F)c(Cl)c2)C(=O)N2CCC[C@H]2C(=O)NC2(CCCC2)C(=O)N(C)[C@@H]([C@@H](C)CC)C(=O)N(C)[C@H](C(=O)N2CCOCC2)CC(=O)N(C)[C@@H](CC(C)C)C(=O)N[C@@H]([C@@H](C)CC)C(=O)N(C)[C@@H](C)C(=O)N2CC[C@H]2C(=O)N1C [Compound 693] ([NMeL]I[NMeA][Aze][NMeS](Propyl)[Sar][hPhe(3-Cl-4-CF3)]P[Ac5c][NMeI][NMeD]-Morpholide; lactam N-11) | ≤ 20 | 1.6
CC[C@H](C)[C@@H]1NC(=O)[C@H](CC(C)C)N(C)C(=O)C[C@@H](C(=O)N2CCOCC2)N(C)C(=O)[C@H]([C@@H](C)CC)N(C)C(=O)C2(CCCC2)NC(=O)[C@@H]2CCCN2C(=O)[C@H](CCc2ccc(C(F)(F)F)c(Cl)c2)NC(=O)CN(CC)C(=O)[C@H](Cc2ccc(C(F)(F)F)cc2)N(C)C(=O)[C@@H]2CCN2C(=O)[C@H](C)N(C)C1=O [Compound 1151] ([NMeL]I[NMeA][Aze][NMePhe(4-CF3)][NEtG][hPhe(3-Cl-4-CF3)]P[Ac5c][NMeI][NMeD]-Morpholide; lactam N-11) | ≤ 20 | 5.2
C#CC[C@@H]1NC(=O)[C@H](CC(C)C)N(C)C(=O)C[C@@H](C)NC(=O)[C@H](CC(C)C)N(C)C(=O)C(C)(C)NC(=O)[C@H](CC(C)C)N(C)C(=O)[C@H](CCc2ccc(C(F)(F)F)c(F)c2)NC(=O)CN(C)C(=O)[C@H](CC2CCCCC2)N(C)C(=O)CN(C)C(=O)CN(C)C1=O [Compound 1474] (cyclo([Aib][NMeL][d(β3hA)][NMeL][Pra][Sar][Sar][NMeCha][Sar][hPhe(3-F,4-CF3)][NMeL])) | > 500 | 240
CC[C@H](C)[C@@H]1NC(=O)[C@H](CC(C)C)N(C)C(=O)C[C@@H](C(=O)N2CCCC2)N(C)C(=O)[C@H]([C@@H](C)CC)N(C)C(=O)C2(CCCC2)NC(=O)[C@@H]2CCCN2C(=O)[C@H](CCc2ccc(C(F)(F)F)c(Cl)c2)NC(=O)CN(C)C(=O)[C@H](Cc2ccc(C(F)(F)F)cc2)N(C)C(=O)[C@@H]2CCN2C(=O)[C@H](C)N(C)C1=O [Compound 882] ([NMeL]I[NMeA][Aze][NMePhe(4-CF3)][Sar][hPhe(3-Cl-4-CF3)]P[Ac5c][NMeI][NMeD]-Pyrrolidide; lactam N-11) | ≤ 20 | 0.47
CC[C@H](C)[C@@H]1NC(=O)[C@H](CC(C)C)N(C)C(=O)C[C@@H](C(=O)N2CCCCC2)N(C)C(=O)[C@H](C(C)C)N(C)C(=O)C2(CCCC2)NC(=O)[C@@H]2CCCN2C(=O)[C@H](CCc2ccc(C(F)(F)F)c(Cl)c2)NC(=O)CN(C)C(=O)[C@H](CC(F)(F)F)N(C)C(=O)[C@@H]2CCN2C(=O)[C@H](C)N(C)C1=O [Compound 1665] ([NMeL]I[NMeA][Aze][NMeAbu(4,4,4-F3)][Sar][hPhe(3-Cl-4-CF3)]P[Ac5c][NMeV][NMeD]-Piperidide; lactam N-11) | > 500 | 19
CC[C@H](C)[C@@H]1NC(=O)[C@H](CC2CCCC2)N(C)C(=O)C[C@@H](C(=O)N2CCOCC2)N(C)C(=O)[C@H]([C@@H](C)CC)N(C)C(=O)C2(CCCC2)NC(=O)[C@@H]2CCCN2C(=O)[C@H](CCc2ccc(C(F)(F)F)c(Cl)c2)NC(=O)CN(C)C(=O)[C@H](Cc2ccc(C(F)(F)F)cc2)N(C)C(=O)[C@@H]2CCN2C(=O)[C@H](C)NC1=O [Compound 1371] ([NMeAla(cPent)]IA[Aze][NMePhe(4-CF3)][Sar][hPhe(3-Cl-4-CF3)]P[Ac5c][NMeI][NMeD]-Morpholide; lactam N-11) | ≤ 20 | 1.6
CC[C@H](C)[C@@H]1NC(=O)[C@H](CC(C)C)N(C)C(=O)C[C@@H](C(=O)N2CCCCC2)N(C)C(=O)[C@H](C2CCCCC2)N(C)C(=O)C2(CCCC2)NC(=O)[C@@H]2C[C@@H](c3ccccc3)CN2C(=O)[C@H](CCc2ccc(C(F)(F)F)c(Cl)c2)NC(=O)CN(C)C(=O)[C@H](CC2CCCCC2)N(C)C(=O)[C@@H]2CCCN2C(=O)CN(C)C1=O [Compound 255] ([NMeL]I[Sar]P[NMeCha][Sar][hPhe(3-Cl-4-CF3)][Pro(trans-4-Ph)][Ac5c][NMeChg][NMeD]-Piperidide; lactam N-11) | > 500 | 7.8
CC[C@H](C)[C@@H]1NC(=O)[C@H](C)N(C)C(=O)C[C@@H](C(=O)N2CCOCC2)N(C)C(=O)[C@H](C2CCCCC2)N(C)C(=O)C2(CCCC2)NC(=O)[C@H](Cc2cccnc2)N(C)C(=O)[C@H](CCc2ccc(C(F)(F)F)c(Cl)c2)NC(=O)CN(C)C(=O)[C@H](CC2CCCCC2)N(C)C(=O)CN(C)C(=O)CN(C)C1=O [Compound 1718] ([NMeA]I[Sar][Sar][NMeCha][Sar][hPhe(3-Cl-4-CF3)][NMe3Pal][Ac5c][NMeChg][NMeD]-Morpholide; lactam N-11) | > 500 | 0.8
CC[C@H](C)[C@@H]1NC(=O)[C@H](CC(C)C)N(C)C(=O)C[C@@H](C(=O)N2CCCC2)N(C)C(=O)[C@H]([C@@H](C)CC)N(C)C(=O)C2(CCCC2)NC(=O)[C@@H]2CCCN2C(=O)[C@H](CCc2ccc(C(F)(F)F)c(Cl)c2)NC(=O)CN(C)C(=O)[C@H](Cc2ccc(C(F)(F)F)cc2)N(C)C(=O)[C@@H]2CCN2C(=O)[C@H](C)NC1=O [Compound 1360] ([NMeL]IA[Aze][NMePhe(4-CF3)][Sar][hPhe(3-Cl-4-CF3)]P[Ac5c][NMeI][NMeD]-Pyrrolidide; lactam N-11) | ≤ 20 | 0.97
CC[C@H](C)[C@@H]1NC(=O)[C@H](CC(C)C)N(C)C(=O)C[C@@H](C(=O)N2CCOCC2)N(C)C(=O)[C@H]([C@@H](C)CC)N(C)C(=O)C2(CCCC2)NC(=O)[C@@H]2CCCN2C(=O)[C@H](CCc2ccc(C(F)(F)F)c(Cl)c2)NC(=O)CN(C)C(=O)[C@H](C2CCCC2)N(C)C(=O)[C@@H]2CCN2C(=O)[C@H](C)N(C)C1=O [Compound 381] ([NMeL]I[NMeA][Aze][NMeGly(cPent)][Sar][hPhe(3-Cl-4-CF3)]P[Ac5c][NMeI][NMeD]-Morpholide; lactam N-11) | ≤ 20 | 1.6
